Experimental findings from patent US11142515B2, “Pyrazolyl-ureas as kinase inhibitors” (RESPIVERT LIMITED, priority 2014, dated 2021) are described below.

Test [1] has as its target T1, p38 MAPKα isoform (MAPK14) (Homo sapiens, UniProt Q16539).
T1 construct: purchased Life Technologies
Briefly: p38 MAPKα enzyme inhibition (Z-LYTE FRET). In kind it is biochemical. The conditions noted are these: Table 2B, unit inferred; read-out: p38 MAPKα (Enzyme Profile). On the procedure: (§1) The enzyme inhibitory activities of compounds disclosed herein were determined by FRET using synthetic peptides labelled with both donor and acceptor fluorophores (Z-LYTE, Life Technologies, Paisley, UK).
The inhibitory activities of compounds of the invention against the p38 MAPKα isoform (MAPK14: Life Technologies), were evaluated indirectly by determining the level of activation/phosphorylation of the target peptide of the p38 MAPKα down-stream molecule, MAPKAP-K2. The enzyme (40 ng/mL, 2.5 μL) was incubated with the test compound (2.5 μL of either 40 μg/mL, 12 μg/mL, 4 μg/mL, 1.2 μg/mL, 0.4 μg/mL, 0.12 μg/mL, 0.04 μg/mL, 0.012 μg/mL, 0.004 μg/mL or 0.0012 μg/mL) for 2 h at RT. […] Development reagent (protease, 5 μL) was added for 1 h prior to detection in a fluorescence microplate reader (EnVision, Perkin Elmer, Waltham, Mass., USA).
(§2) In all cases, the site-specific protease cleaves non-phosphorylated peptide only and eliminates the FRET signal. Phosphorylation levels of each reaction were calculated using the ratio of coumarin emission (donor) over fluorescein emission (acceptor), for which low ratios indicate high phosphorylation and high ratios indicate low phosphorylation levels.

The target in another test is T2, p38MAPKγ (MAPK12) (Homo sapiens, UniProt P53778).
T2 construct: purchased Life Technologies
T2 sequence (P53778 1-367): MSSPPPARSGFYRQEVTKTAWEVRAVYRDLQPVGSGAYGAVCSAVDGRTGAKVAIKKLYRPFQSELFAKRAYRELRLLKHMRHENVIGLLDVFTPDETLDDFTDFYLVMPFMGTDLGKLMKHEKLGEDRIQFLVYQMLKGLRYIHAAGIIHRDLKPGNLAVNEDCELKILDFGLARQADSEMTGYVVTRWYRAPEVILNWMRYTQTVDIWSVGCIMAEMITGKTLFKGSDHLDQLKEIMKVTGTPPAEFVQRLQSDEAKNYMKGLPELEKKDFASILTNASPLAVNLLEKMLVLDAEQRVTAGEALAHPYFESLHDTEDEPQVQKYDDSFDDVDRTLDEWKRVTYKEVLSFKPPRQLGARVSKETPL
In words: p38 MAPKγ enzyme inhibition (Z-LYTE FRET). Type of test: biochemical. Particulars: Table 2B, unit inferred; read-out: p38 MAPKγ (Enzyme Profile). Here is the method:
as §1
The inhibitory activities of compounds of the invention against p38MAPKγ (MAPK12: Life Technologies), were evaluated by determining the level of activation/phosphorylation of the target peptide. The enzyme (800 ng/mL, 2.5 μL) was incubated with the test compound (2.5 μL at either 40 μg/mL, 12 μg/mL, 4 μg/mL, 1.2 μg/mL, 0.4 μg/mL, 0.12 μg/mL, 0.04 μg/mL, 0.012 μg/mL, 0.004 μg/mL or 0.0012 μg/mL) for 2 h at RT. The FRET peptides (8 μM, 2.5 μL), and appropriate ATP solution (2.5 μL, 400 μM) were then added to the enzymes/compound mixtures and incubated for 1 h at RT. Development reagent (protease, 5 μL) was added for 1 h prior to detection in a fluorescence microplate reader (EnVision, Perkin Elmer).
as §2

T1 sequence (Q16539 whole entry, canonical isoform): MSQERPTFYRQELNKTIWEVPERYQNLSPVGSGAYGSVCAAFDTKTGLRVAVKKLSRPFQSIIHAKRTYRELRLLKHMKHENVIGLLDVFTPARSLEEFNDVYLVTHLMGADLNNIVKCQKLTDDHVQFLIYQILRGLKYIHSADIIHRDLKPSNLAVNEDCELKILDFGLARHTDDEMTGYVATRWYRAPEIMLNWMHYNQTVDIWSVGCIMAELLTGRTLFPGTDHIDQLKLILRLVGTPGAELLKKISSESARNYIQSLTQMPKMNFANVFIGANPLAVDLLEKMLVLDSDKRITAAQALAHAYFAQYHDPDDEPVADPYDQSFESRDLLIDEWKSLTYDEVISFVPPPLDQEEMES

For `Cc1ccc(-n2nc(C(C)(C)C)cc2NC(=O)Nc2ccc(OCc3ccnc(Nc4cnc(C(=O)NCCO)cn4)c3)c3ccccc23)cc1` [Example 53, 5-((4-(((4-(3-(3-(tert-Butyl)-1-(p-tolyl)-1H-pyrazol-5-yl)ureido)naphthalen-1-yl)oxy)methyl)pyridin-2-yl)amino)-N-(2-hydroxyethyl)pyrazine-2-carboxamide], the IC50 in test [1] is 17 nM; at p38MAPKγ (MAPK12), 95 nM.

As to `Cc1ccc(-n2nc(C(C)(C)C)cc2NC(=O)Nc2ccc(OCc3ccnc(Nc4cncc(N5CCCC5)n4)c3)c3ccccc23)cc1` [Example 55, 1-(3-(tert-Butyl)-1-(p-tolyl)-1H-pyrazol-5-yl)-3-(4-((2-((6-(pyrrolidin-1-yl)pyrazin-2-yl)amino)pyridin-4-yl)methoxy)naphthalen-1-yl)urea], the IC50 was 15 nM in test [1] and 151 nM at p38MAPKγ (MAPK12).

Take `COC1CCN(C(=O)c2cnc(Nc3cc(COc4ccc(NC(=O)Nc5cc(C(C)(C)C)nn5-c5ccc(C)cc5)c5ccccc45)ccn3)cn2)CC1` [Example 56]: the IC50 in test [1] amounted to 21 nM; on p38MAPKγ (MAPK12), 262 nM.

In the case of `COc1cc(-n2nc(C(C)(C)C)cc2NC(=O)Nc2ccc(OCc3ccnc(Nc4cnccn4)c3)c3ccccc23)ccc1C` [Example 57], the IC50 in test [1] was 15 nM; at p38MAPKγ (MAPK12), 229 nM.

Turning to `Cc1cccc(-n2nc(C(C)(C)C)cc2NC(=O)Nc2ccc(OCc3ccnc(Nc4cnc(C)c(C)n4)c3)c3ccccc23)c1` [Example 58], the IC50 in test [1] came out at 18 nM; at p38MAPKγ (MAPK12) it was 435 nM.

As to `Cc1ccc(-n2nc(C(C)(C)C)cc2NC(=O)Nc2ccc(OCc3ccnc(Nc4cnccn4)c3)c3ccccc23)cc1F` [Example 59], the IC50 was determined as 18 nM in test [1] and 105 nM on p38MAPKγ (MAPK12).

As to `Cc1ccc(-n2nc(C(C)(C)C)cc2NC(=O)Nc2ccc(OCc3ccnc(Nc4cnc(C(=O)N5CCN6CCC[C@H]6C5)cn4)c3)c3ccccc23)cc1` [Example 275, (S)-1-(3-(tert-butyl)-1-(p-tolyl)-1H-pyrazol-5-yl)-3-(4-((2-((5-(octahydropyrrolo [1,2-a]pyrazine-2-carbonyl)pyrazin-2-yl)amino)pyridin-4-yl)methoxy)naphthalen-1-yl)urea], on p38MAPKγ (MAPK12), the IC50 was 129 nM.

For `COCc1cccc(-n2nc(C(C)(C)C)cc2NC(=O)Nc2ccc(OCc3ccnc(Nc4cnc(CN5CCN(C)CC5)cn4)c3)c3ccccc23)c1` [Example 276, 1-(3-(tert-butyl)-1-(3-(methoxymethyl)phenyl)-1H-pyrazol-5-yl)-3-(4-((2-((5-((4-methylpiperazin-1-yl)methyl)pyrazin-2-yl)amino)pyridin-4-yl)methoxy)naphthalen-1-yl)urea], at p38MAPKγ (MAPK12), the IC50 was determined as 8.4 nM.

Turning to `Cc1ccc(-n2nc(C(C)(C)C)cc2NC(=O)Nc2ccc(OCc3ccnc(Nc4cnc(CN5CCN(C)CC5)cn4)c3)c3ccccc23)cc1` [Example 277, 1-(3-(tert-butyl)-1-(p-tolyl)-1H-pyrazol-5-yl)-3-(4-((2-((5-((4-methylpiperazin-1-yl)methyl)pyrazin-2-yl)amino)pyridin-4-yl)methoxy)naphthalen-1-yl)urea], the IC50 on p38MAPKγ (MAPK12) stood at 31 nM.

On to `Cc1ccc(-n2nc(C(C)(C)C)cc2NC(=O)Nc2ccc(OCc3ccnc(Nc4cnc(C(=O)N[C@@H](C)CN5CCOCC5)cn4)c3)c3ccccc23)cc1` [Example 278, (S)-5-((4-(((4-(3-(3-(tert-butyl)-1-(p-tolyl)-1H-pyrazol-5-yl)ureido)naphthalen-1-yl)oxy)methyl)pyridin-2-yl)amino)-N-(1-morpholinopropan-2-yl) pyrazine-2-carboxamide], for which, on p38MAPKγ (MAPK12), the IC50 is 197 nM.

For `Cc1ccc(-n2nc(C(C)(C)C)cc2NC(=O)Nc2ccc(OCc3ccnc(Nc4cnc(C(=O)NCCCN5CCOCC5)cn4)c3)c3ccccc23)cc1` [Example 279, 5-((4-(((4-(3-(3-(tert-butyl)-1-(p-tolyl)-1H-pyrazol-5-yl)ureido)naphthalen-1-yl)oxy)methyl)pyridin-2-yl)amino)-N-(3-morpholino-propyl)pyrazine-2-carboxamide], the IC50 at p38MAPKγ (MAPK12) was 116 nM.

Take `Cc1ccc(-n2nc(C(C)(C)C)cc2NC(=O)Nc2ccc(OCc3ccnc(Nc4cnc(C(=O)NCCCN5CCN(C)CC5)cn4)c3)c3ccccc23)cc1` [Example 280, 5-((4-(((4-(3-(3-(tert-butyl)-1-(p-tolyl)-1H-pyrazol-5-yl)ureido)naphthalen-1-yl)oxy)methyl)pyridin-2-yl)amino)-N-(3-(4-methyl-piperazin-1-yl)propyl) pyrazine-2-carboxamide]: at p38MAPKγ (MAPK12), the IC50 came out at 31 nM.

Regarding `Cc1ccc(-n2nc(C(C)(C)C)cc2NC(=O)Nc2ccc(OCc3ccnc(Nc4cnc(C(=O)NCC(C)(C)N5CCOCC5)cn4)c3)c3ccccc23)cc1` [Example 281, 5-((4-(((4-(3-(3-(tert-butyl)-1-(p-tolyl)-1H-pyrazol-5-yl)ureido)naphthalen-1-yl)oxy)methyl)pyridin-2-yl)amino)-N-(2-methyl-2-morpholinopropyl)pyrazine-2-carboxamide], the IC50 on p38MAPKγ (MAPK12) amounted to 289 nM.

For the compound `COCCN1CCC(NC(=O)c2cnc(Nc3cc(COc4ccc(NC(=O)Nc5cc(C(C)(C)C)nn5-c5ccc(C)cc5)c5ccccc45)ccn3)cn2)CC1` [Example 282, 5-((4-(((4-(3-(3-(tert-butyl)-1-(p-tolyl)-1H-pyrazol-5-yl)ureido)naphthalen-1-yl)oxy)methyl)pyridin-2-yl)amino)-N-(1-(2-methoxy-ethyl)piperidin-4-yl) pyrazine-2-carboxamide], the IC50 at p38MAPKγ (MAPK12) is 62 nM.

Take `CCN1CCN(C(=O)c2cnc(Nc3cc(COc4ccc(NC(=O)Nc5cc(C(C)(C)C)nn5-c5cccc(COC)c5)c5ccccc45)ccn3)cn2)CC1` [Example 283, 1-(3-(tert-butyl)-1-(3-(methoxymethyl)phenyl)-1H-pyrazol-5-yl)-3-(4-((2-((5-(4-ethylpiperazine-1-carbonyl)pyrazin-2-yl)amino)pyridin-4-yl)methoxy)naphthalen-1-yl)urea]: the IC50 at p38MAPKγ (MAPK12) turned out to be 35 nM.

`COCc1cccc(-n2nc(C(C)(C)C)cc2NC(=O)Nc2ccc(OCc3ccnc(Nc4cnc(C(=O)N5CCC(N(C)C)CC5)cn4)c3)c3ccccc23)c1` [Example 284, 1-(3-(tert-butyl)-1-(3-(methoxymethyl)phenyl)-1H-pyrazol-5-yl)-3-(4-((2-((5-(4-(dimethylamino)piperidine-1-carbonyl)pyrazin-2-yl)amino)pyridin-4-yl)methoxy)naphthalen-1-yl)urea]: the IC50 at p38MAPKγ (MAPK12) came to 1.7 nM.

Consider `Cc1ccc(-n2nc(C(C)(C)C)cc2NC(=O)Nc2ccc(OCc3ccnc(Nc4cncc(CN5CCOCC5)n4)c3)c3ccccc23)cc1` [Example 285, 1-(3-(tert-butyl)-1-(p-tolyl)-1H-pyrazol-5-yl)-3-(4-((2-((6-(morpholinomethyl)pyrazin-2-yl)amino)pyridin-4-yl)methoxy)naphthalen-1-yl)urea], for which, at p38MAPKγ (MAPK12), the IC50 is 83 nM.

As to `Cc1ccc(-n2nc(C(C)(C)C)cc2NC(=O)Nc2ccc(OCc3ccnc(Nc4cncc(C5CCN(C)CC5)n4)c3)c3ccccc23)cc1` [Example 286, 1-(3-(tert-butyl)-1-(p-tolyl)-1H-pyrazol-5-yl)-3-(4-((2-((6-(1-methylpiperidin-4-yl)pyrazin-2-yl)amino)pyridin-4-yl)methoxy)naphthalen-1-yl)urea], the IC50 on p38MAPKγ (MAPK12) came out at 5.8 nM.

As to `Cc1ccc(-n2nc(C(C)(C)C)cc2NC(=O)Nc2ccc(OCc3ccnc(Nc4cnc(C(=O)NC(C)(C)CN5CCOCC5)cn4)c3)c3ccccc23)cc1` [Example 287, 5-((4-(((4-(3-(3-(tert-butyl)-1-(p-tolyl)-1H-pyrazol-5-yl)ureido)naphthalen-1-yl)oxy)methyl)pyridin-2-yl)amino)-N-(2-methyl-1-morpholinopropan-2-yl) pyrazine-2-carboxamide], the IC50 on p38MAPKγ (MAPK12) was over 12800 nM.

`Cc1ccc(-n2nc(C(C)(C)C)cc2NC(=O)Nc2ccc(OCc3ccnc(Nc4cnc(C(=O)NCc5nccn5C)cn4)c3)c3ccccc23)cc1` [Example 288, 5-((4-(((4-(3-(3-(tert-butyl)-1-(p-tolyl)-1H-pyrazol-5-yl)ureido)naphthalen-1-yl)oxy)methyl)pyridin-2-yl)amino)-N-((1-methyl-1H-imidazol-2-yl)methyl)pyrazine-2-carboxamide]: the IC50 at p38MAPKγ (MAPK12) is over 13600 nM.
